# The source made the active and inactive calls. The calls are words filed in the database; no cut-off is given here.
# Legend:
# [1] = system: Mycobacterium tuberculosis; assay: Antitubercular activity against Mycobacterium tuberculosis H37Rv (ATCC 25618) incubated for […] by MABA assay; assay type: functional
# [2] = molecular target: T1, Decaprenylphosphoryl-beta-D-ribose oxidase (Mycobacterium tuberculosis (strain ATCC 25618 / H37Rv)) (UniProt P9WJF1); assay: Time-dependent covalent inhibition of recombinant Mycobacterium tuberculosis DprE1 expressed in Escherichia coli by Amplex Red/peroxidase coupled assay
# T1 sequence (whole entry): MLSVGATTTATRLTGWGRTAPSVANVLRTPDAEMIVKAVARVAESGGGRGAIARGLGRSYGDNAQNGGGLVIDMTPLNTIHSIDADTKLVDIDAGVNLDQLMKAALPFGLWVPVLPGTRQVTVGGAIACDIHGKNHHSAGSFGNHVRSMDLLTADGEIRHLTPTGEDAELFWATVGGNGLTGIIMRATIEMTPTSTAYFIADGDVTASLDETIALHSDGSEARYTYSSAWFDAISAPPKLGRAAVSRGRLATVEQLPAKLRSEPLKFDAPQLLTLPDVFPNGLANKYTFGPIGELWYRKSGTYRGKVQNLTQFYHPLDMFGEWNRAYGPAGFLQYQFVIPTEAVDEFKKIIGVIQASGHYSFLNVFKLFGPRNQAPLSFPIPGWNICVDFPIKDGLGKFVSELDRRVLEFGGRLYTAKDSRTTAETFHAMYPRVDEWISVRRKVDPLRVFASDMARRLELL
# [3] = Metabolic stability in NADPH-fortified human liver microsomes assessed as CYP450-mediated stability incubated for 120 mins by LC/MS analysis; assay type: ADME, Microsome; conditions: 2 h
# [4] = Metabolic stability in NADPH-fortified mouse liver microsomes assessed as CYP450-mediated stability incubated for 120 mins by LC/MS analysis; assay type: ADME, Microsome; conditions: 2 h
# [5] = Tmax in ICR mouse at 25 micromol/kg, po measured after 24 hrs by LC-MS/MS analysis; assay type: ADME, organism-based; conditions: in vivo, dose 25 µmol/kg
# [6] = Cmax in ICR mouse at 25 micromol/kg, po measured after 24 hrs by LC-MS/MS analysis; assay type: ADME, organism-based; conditions: in vivo, dose 25 µmol/kg
# [7] = AUC (0 to 24 hrs) in ICR mouse at 25 micromol/kg, po by LC-MS/MS analysis; assay type: ADME, organism-based; conditions: in vivo, po, dose 25 µmol/kg
# [8] = Elimination half life in ICR mouse at 25 micromol/kg, po measured after 24 hrs by LC-MS/MS analysis; assay type: ADME, organism-based; conditions: in vivo, dose 25 µmol/kg, read-out: beta t1/2 (converted)
# [9] = MRT in ICR mouse at 25 micromol/kg, po measured after 24 hrs by LC-MS/MS analysis; assay type: ADME, organism-based; conditions: in vivo, dose 25 µmol/kg
# [10] = Oral bioavailability in ICR mouse at 25 micromol/kg measured after 24 hrs by LC-MS/MS analysis; assay type: ADME, organism-based; conditions: in vivo, po, 24 h, at 25 µmol/kg
# [11] = AUC (0 to 8 hrs) in ICR mouse at 5 micromol/kg, iv by LC-MS/MS analysis; assay type: ADME, organism-based; conditions: in vivo, iv, dose 5 µmol/kg
# [12] = Drug concentration in ICR mouse plasma at 5 micromol/kg, iv measured after 5 mins by LC-MS/MS analysis; assay type: ADME, organism-based; conditions: dose 5 µmol/kg
# [13] = Elimination half life in ICR mouse at 5 micromol/kg, iv measured after 24 hrs by LC-MS/MS analysis; assay type: ADME, organism-based; conditions: in vivo, dose 5 µmol/kg, read-out: beta t1/2 (converted)
# [14] = MRT in ICR mouse at 5 micromol/kg, iv measured after 24 hrs by LC-MS/MS analysis; assay type: ADME, organism-based; conditions: in vivo, dose 5 µmol/kg
# [15] = Volume of distribution at steady state in ICR mouse at 5 micromol/kg, iv measured after 24 hrs by LC-MS/MS analysis; assay type: ADME, organism-based; conditions: in vivo, dose 5 µmol/kg, read-out: Vdss
# [16] = Total plasma clearance in ICR mouse at 5 micromol/kg, iv measured after 24 hrs by LC-MS/MS analysis; assay type: ADME, organism-based; conditions: dose 5 µmol/kg
# [17] = Protein binding in mouse plasma assessed as unbound fraction incubated for 24 hrs by equilibrium dialysis based LC/MS analysis; assay type: ADME, cell-free
# [18] = Aqueous solubility of the compound in PBS buffer at pH 6.82 incubated for 4 hrs by HPLC analysis; assay type: physicochemical
# HepG2 = assay: Cytotoxicity against human HepG2 cells at 30 uM incubated for 48 hrs by CCK8 assay; assay type: toxicity, cell-based; conditions: hepg2, 48 h
# [19] = system: Mycobacterium tuberculosis; assay: Antitubercular activity against Mycobacterium tuberculosis H37Rv infected in BALB/c mouse assessed as log reduction in colony formation in lung at 50 mg/kg, po administered for 6 weeks; assay type: functional
# [20] = Cytotoxicity against mouse hepatic stellate cells at 30 uM incubated for 48 hrs by CCK8 assay; assay type: toxicity, cell-based; conditions: hepatic stellate cell
structure (smiles),measurement,setting,value
CN(C/C=C\c1ccccc1)c1nc(=O)c2cc(C(F)(F)F)cc([N+](=O)[O-])c2s1,MIC,[1],0.045 µM
same,TDI,[2],Active
CN(CC#CC1CCCC1)c1nc(=O)c2cc(C(F)(F)F)cc([N+](=O)[O-])c2s1,MIC,[1],0.005 µM
CN(C/C=C/c1ccccc1)c1nc(=O)c2cc(C(F)(F)F)cc([N+](=O)[O-])c2s1,MIC,[1],0.024 µM
same,TDI,[2],Active
CN(CC#CCN1CCSCC1)c1nc(=O)c2cc(C(F)(F)F)cc([N+](=O)[O-])c2s1,MIC,[1],0.028 µM
CN(CC#Cc1ccsc1)c1nc(=O)c2cc(C(F)(F)F)cc([N+](=O)[O-])c2s1,MIC,[1],0.014 µM
same,Stability,[3],Stable
same,Stability,[4],Stable
CN(CC#CC(C)(C)C)c1nc(=O)c2cc(C(F)(F)F)cc([N+](=O)[O-])c2s1,MIC,[1],0.023 µM
CN(CC#Cc1ccc(F)c(F)c1)c1nc(=O)c2cc(C(F)(F)F)cc([N+](=O)[O-])c2s1,MIC,[1],0.013 µM
CN(C/C=C\C1CCCCC1)c1nc(=O)c2cc(C(F)(F)F)cc([N+](=O)[O-])c2s1,MIC,[1],0.009 µM
CN(CC#Cc1cscn1)c1nc(=O)c2cc(C(F)(F)F)cc([N+](=O)[O-])c2s1,MIC,[1],0.028 µM
same,Tmax,[5],60 min
same,Cmax,[6],2670 nM
same,AUC,[7],18.99661 µM·h
same,half-life,[8],286 min
same,MRT,[9],7.17 h
same,F,[10],37.13%
same,AUC,[11],4663.45 nM·h
same,concentration at 5 min,[12],10.3 µM
same,half-life,[13],50.4 min
same,MRT,[14],1.05 h
same,Vd,[15],0.59 L/kg
same,clearance,[16],8.5 mL/min/kg
same,Fu,[17],0.65%
same,solubility at 4 h,[18],12.8 µg/mL
same,Activity,HepG2,Non-Toxic
same,Activity,[19],~2 log10CFU
same,Stability,[3],Stable
same,Stability,[4],Stable
same,Activity,[20],Non-Toxic
CN(C/C=C/C1CCCC1)c1nc(=O)c2cc(C(F)(F)F)cc([N+](=O)[O-])c2s1,MIC,[1],0.002 µM
CN(Cc1cn(-c2ccccc2)nn1)c1nc(=O)c2cc(S(C)(=O)=O)cc([N+](=O)[O-])c2s1,MIC,[1],0.047 µM
O=c1nc(N2CCN(CC3CCCCC3)CC2)sc2c([N+](=O)[O-])cc(C(F)(F)F)cc12 [MACOZINONE],MIC,[1],< 0.0004 µM
same,Tmax,[5],22.8 min
same,Cmax,[6],472 nM
same,AUC,[7],0.80339 µM·h
same,half-life,[8],88.8 min
same,MRT,[9],2.44 h
same,F,[10],0.65%
same,AUC,[11],1187.66 nM·h
same,concentration at 5 min,[12],1.39 µM
same,half-life,[13],57 min
same,MRT,[14],1.42 h
same,Vd,[15],5.61 L/kg
same,clearance,[16],65.5 mL/min/kg
same,Fu,[17],0.46%
same,solubility at 4 h,[18],0.01 µg/mL
CN(C/C=C/C1CC1)c1nc(=O)c2cc(C(F)(F)F)cc([N+](=O)[O-])c2s1,MIC,[1],0.023 µM
CN(CC#CCc1ccccc1)c1nc(=O)c2cc(C(F)(F)F)cc([N+](=O)[O-])c2s1,MIC,[1],0.053 µM
same,TDI,[2],Active
CN(CC#Cc1ccc(F)cc1F)c1nc(=O)c2cc(C(F)(F)F)cc([N+](=O)[O-])c2s1,MIC,[1],0.007 µM
CN(CC#CCN1CCS(=O)(=O)CC1)c1nc(=O)c2cc(C(F)(F)F)cc([N+](=O)[O-])c2s1,MIC,[1],0.867 µM
CN(C/C=C/C1CCCCC1)c1nc(=O)c2cc(C(F)(F)F)cc([N+](=O)[O-])c2s1,MIC,[1],0.002 µM
CN(CC#Cc1cccs1)c1nc(=O)c2cc(C(F)(F)F)cc([N+](=O)[O-])c2s1,MIC,[1],0.014 µM
same,TDI,[2],Active
same,Stability,[3],Stable
same,Stability,[4],Stable
CN(C/C=C\C1CCCC1)c1nc(=O)c2cc(C(F)(F)F)cc([N+](=O)[O-])c2s1,MIC,[1],0.01 µM
CN(CC#CCN1CCCC1)c1nc(=O)c2cc(C(F)(F)F)cc([N+](=O)[O-])c2s1,MIC,[1],0.378 µM
CN(CC#Cc1cccc(C#N)c1)c1nc(=O)c2cc(C(F)(F)F)cc([N+](=O)[O-])c2s1,MIC,[1],0.029 µM
